US8987449B2, “Medicine for treating ischemic brain injury and its sequelae, and preparation method thereof” (Haimin Lei, priority 2011, dated 2015)

Legend:
ICR mice = experiment: Buccal respiration duration of mice after head cutting (4° C. icy water swimming model); type: in vivo, mouse; settings: control 32.45 ± 5.49
Procedure: ICR mice, half female and half male, weighing 19-21 g, certificate No.: SCXK (Jing) 2006-0009, provided by BeiJing Vital River Laboratories.
LQC-T4, tetramethylpyrazine (TMP), vanillic acid, Nimodipine (ShanDong XinHua Pharmaceutical CO., Ltd, batch No.: 0908164)
160 male ICR mice were divided into 8 groups randomly by weight, each of which contained 20 mice, wherein 0.5% CMC-NA (0.2 ml·10 g^−1) was administrated intragastrically to the blank control group; 6.7 mg·kg^−1 Nimodipine (0.2 ml·10 g^−1) was administrated intragastrically to the positive control group; 100 mg·kg^−1 TMP (0.2 ml·10 g^−1) was administrated intragastrically to the TMP group, three different dosage of 200 mg·kg^−1, 100 mg·kg^−1, 50 mg·kg^−1 were administrated intragastrically to the LQC-T4 (0.2 ml·10 g^−1) group relatively, and 125 mg·kg^−1 TMP+80 mg·kg^−1 vanillitc acid (0.2 ml·10 g^−1) was administrated intragastrically respectively. The medicines were continuously administrated once a day for 10 days.
The literature was referred to: [LiuZhenquan, SunHui, Xuqiuping, etc., Experimental Study on the Brain-Protective Effect of the Effective Fraction of Naoxin Formula in the Mouse Model of with Load-Bearing Swimming in Cold Water, Journal of Beijing University of Traditional Chinese Medicine [J], 2004, 27(4): 54-56] and the method recorded therein was improved. The head was rapidly cut with a scissor at post mortem when the mouse swam in 4° C. icy water for 3 min after the final administration. After head being cut, the buccal respiration duration of mouse was recorded.
(§1) The SAS 8.2 statistical software was used to carry out the one-way ANOVA variance analysis and the difference among the groups were compared by t-test.

VEGF [1] = experiment: VEGF content of MCAO rats (kit, 450 nm); type: in vivo, rat; settings: brain homogenate, model group 18.28 ± 1.62
Description: 1.1 Experimental animal and 1.2 Medicine to be tested: the same as effect example 6
1.3 Experimental reagents: PBS, VEGF kit
1.4 Experimental instruments: nylon fishing wire having a diameter of 0.25 mm, German; enzyme-labeling instrument (Finland, Thermo BioAnalysis Company's product, Multiskan MK3 model); surgical instruments, Surgical Instrument Factory of Shanghai Medical Apparatus And Instruments CO, LTD.
2.1 The preparation of re-perfusion model of middle cerebral artery occlusion of a rat: the same as effect example 6
2.2 The judgment on whether the model was successful and 2.3 Grouping and administration: the same as effect example 6
2.4 Taking Material and treatment: the same as effect example 6
As to VEGF, it is detected using enzyme-labeling instrument at 450 nm according to the kit.
The SAS 8.2 statistical software was used to carry out the one-way ANOVA variance analysis and the differences among the groups were compared by t-test.

[2] = tested on: rat primary cortical neurons; experiment: Proliferation of primary neuronal cells by MTT and morphology observation; type: cell-based; settings: for MTT(A540), 24 h after the administration: normal neurons, control 0.7567 ± 0.1109
Procedure: SD pregnant rats: pregnant for 16-18 d, certificate number: SCXK (Jing) 2006-0009, provided by BeiJing Vital River Laboratories.
LQC-T4 (prepared by the method of example 5), the purity was ≧98%, determined by high performance liquid chromatography (HPLC), which met the requirement of the experiment. The powder was carefully sealed and preserved at 4° C. The prepared LQC-T4 was dissolved using dimethyl sulfoxide and made into […] storing liquid for use.
Referring to the document [HongQingtao, TangYipeng, Neurons of cerebral cortex of newborn rats in in vitro primary culture, Chinese Journal of Neuroanatomy, 1994, 10(3):259-262], the pregnant 16-18 d SD rat was executed by dislocation. The fetal rat was taken out in an aseptic environment, the meninges and blood steak were stripped, the cortex was separated and cut into 1 mm^3 tissue block (all carried out on ice). The tissue block was digested at 37[…] with 0.1% pancreatic enzyme-0.02% EDTA for 20 min. Digesting was stopped using DMEM containing fetal calf serum and the number of the cells was adjusted to 5×10^5 cells ml^−1. The resultant cells were inoculated into a 96 well plate treated by 0.001% polylysine and the plate was put in a 37° C. 5% CO2 incubation box to be cultured. The cultivation liquid was changed (totally) after 48 h and add adenine arabinoside was added (final concentration is 5 μM) to inhibit the excessive proliferation of non-neurons. The cultivation liquid was changed after 48 h with fresh cultivation liquid and culture was continued. And the cultivation liquid was changed every 3 days afterward.
The cultivation liquid was sucked away on the eighth day of neuron culture. DMEM culture-medium containing 0.15% DMSO was added to the blank group, while 60 μM, 30 μM, 15 μM LQC-T4, 60 μM tetramethylpyrazine and 60 μM vanillic acid were respectively added to the administration group. Ten parallel wells were set as a group. And they were put into a 37° C., 5% CO2 incubation box to continue culturing for 24 h.
5 mg/ml MTT 20 μl was added to each well at the time of 4 h before the experiment ended and the cultivation liquid was sucked away. DMSO 200 μl was added to each well. When the purple particles were completely dissolved, the enzyme-linked immune assay was used to measure the optical density at 540 nm.
as §1

[3] = tested on: rat cortex neurons after cerebral ischemia; experiment: Brain histopathologic morphology after cerebral ischemia (HE staining of cortex); type: in vivo; settings: MCAO rats, compared with model group
Procedure: The same as effect example 4
10% chloral hydrate (0.35 g/kg) was injected into the abdominal cavity of a rat to anesthetize thereof. The thoracic cavity was cut to expose the heart fully. It was intubated through left ventricle. Firstly, it was washed with 37[…] saline solution 300 ml and perfused with pre-cooled 4% paraformaldehyde phosphate buffer solution (pH 7.2). When the rat was adequately fixed and the body was stiff, the head was cut and the brain was taken rapidly. And the brain was dipped into 4% paraformaldehyde solution and fixed for 24 h. Next, it was put into tissue vacuum hydroextractor, was dehydrated with gradient ethanol, made transparent with xylene, and imbedded into paraffin. 3-5 examples were taken for each group. And then 3 mm-4 mm tissue block from chiasma opticum towards caudal end at coronal position was taken, wherein the thickness of brain slice was 3 μm.
The rat cortex damage after cerebral ischemia and the effect of the medicine were observed through HE staining.

VEGF [4] = experiment: VEGF expression in the cortex infarction zone (immunohistochemistry SP two-step method); type: in vivo, rat; settings: MCAO rats, vs model group

Structure (SMILES)	respiration duration (ICR mice; 6.7 mg/kg intragastrically once a day for 10 days) [s]	VEGF (VEGF [1]; 30 mg/kg once per day for 10 days)	respiration duration (ICR mice; 50 mg/kg intragastrically once a day for 10 days) [s]	respiration duration (ICR mice; 100 mg/kg intragastrically once a day for 10 days) [s]	respiration duration (ICR mice; 200 mg/kg intragastrically once a day for 10 days) [s]	VEGF (VEGF [1]; 60 mg/kg intragastrically once per day for 10 days)	VEGF (VEGF [1]; 120 mg/kg intragastrically once per day for 10 days)	MTT(A540), 24 h after the administration ([2]; 15 μM)	MTT(A540), 24 h after the administration ([2]; 30 μM)	MTT(A540), 24 h after the administration ([2]; 60 μM)	promoting effect on the growth of normal neurons ([2]; 24 h after the administration, P>0.05, result in words)	morphology observation of primary neuronal cells ([2]; phase contrast microscope, vs normal group)	remaining of the complete neuron of the rat cortex after cerebral ischemia (HE staining) ([3]; 60 mg/kg)	remaining of the complete neuron of the rat cortex after cerebral ischemia (HE staining) ([3]; 120 mg/kg)	VEGF expression in the rat cerebral infarction zone (VEGF [4]; 60 mg/kg small dosage group)	VEGF expression in the rat cerebral infarction zone (VEGF [4]; 120 mg/kg large dosage group)	respiration duration (ICR mice; 125 mg/kg intragastrically once a day for 10 days) [s]	VEGF (VEGF [1]; 37 mg/kg once per day for 10 days)	remaining of the complete neuron of the rat cortex after cerebral ischemia (HE staining) ([3]; TMP group)	VEGF expression in the rat cerebral infarction zone (VEGF [4]; TMP group)
COCCOC(=O)C1=C(C)NC(C)=C(C(=O)OC(C)C)C1c1cccc([N+](=O)[O-])c1 (stereo not drawn) [Nimodipine, reference compound]	37.23 ± 5.37	19.66 ± 2.34																		
COc1cc(C(=O)OCc2nc(C)c(C)nc2C)ccc1OCc1nc(C)c(C)nc1C [LQC-T4, (3,5,6-trimethylpyrazine-2-yl)methyl 3-methoxy-4-((3,5,6-trimethylpyrazine-2-yl)methoxy) benzoate]			36.78 ± 5.40	36.07 ± 3.15	35.91 ± 4.25	25.67 ± 9.69	22.86 ± 8.42	0.9175 ± 0.2300	0.9114 ± 0.1599	0.8106 ± 0.2415	greater than that of the tetramethylpyrazine group and the vanillic acid group	more prosperous in growth and their protrusions formed a network	a larger amount of neurons which were distinct and complete in structure	a larger amount of neurons which were distinct and complete in structure	more than that of the model group	more than that of the model group				
Cc1nc(C)c(C)nc1C [TMP, tetramethylpyrazine, reference compound]										0.8710 ± 0.1350							37.26 ± 5.99	23.62 ± 6.68	a lower level of damage compared with the model group	more than that of the model group
